{"source": "patent US20250099434A1", "about": "“METHODS OF TREATING AMYLOID RELATED BRAIN DISORDERS USING NOVEL COMPOUNDS AND ANTIBODIES” (T3D Therapeutics, Inc., priority 2022, published 2025)", "key": {"human PPARδ": {"molecular_target": "T1, human PPARδ (Homo sapiens, UniProt Q03181)", "T1 construct": "expressed in transfected cells; host or cells: CV-1 cells", "T1 sequence (Q03181 1-441)": "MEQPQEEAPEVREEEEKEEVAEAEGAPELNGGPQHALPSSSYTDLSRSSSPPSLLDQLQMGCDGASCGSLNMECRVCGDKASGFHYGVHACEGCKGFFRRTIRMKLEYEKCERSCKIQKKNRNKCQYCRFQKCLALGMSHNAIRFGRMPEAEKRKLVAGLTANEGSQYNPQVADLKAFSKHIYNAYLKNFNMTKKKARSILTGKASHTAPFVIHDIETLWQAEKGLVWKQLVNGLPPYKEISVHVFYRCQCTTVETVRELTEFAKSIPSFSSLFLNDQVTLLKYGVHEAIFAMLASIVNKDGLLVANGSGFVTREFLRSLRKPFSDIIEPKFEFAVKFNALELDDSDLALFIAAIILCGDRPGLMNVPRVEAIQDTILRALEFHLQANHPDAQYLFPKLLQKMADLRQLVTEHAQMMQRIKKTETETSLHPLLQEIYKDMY", "assay": "Human PPAR activation, transient transfection in CV-1 cells (δ subtype)", "assay_type": "cell-based"}, "human PPARα": {"molecular_target": "T2, human PPARα (Homo sapiens, UniProt Q07869)", "T2 construct": "expressed in transfected cells; host or cells: CV-1 cells", "T2 sequence (Q07869 1-468)": "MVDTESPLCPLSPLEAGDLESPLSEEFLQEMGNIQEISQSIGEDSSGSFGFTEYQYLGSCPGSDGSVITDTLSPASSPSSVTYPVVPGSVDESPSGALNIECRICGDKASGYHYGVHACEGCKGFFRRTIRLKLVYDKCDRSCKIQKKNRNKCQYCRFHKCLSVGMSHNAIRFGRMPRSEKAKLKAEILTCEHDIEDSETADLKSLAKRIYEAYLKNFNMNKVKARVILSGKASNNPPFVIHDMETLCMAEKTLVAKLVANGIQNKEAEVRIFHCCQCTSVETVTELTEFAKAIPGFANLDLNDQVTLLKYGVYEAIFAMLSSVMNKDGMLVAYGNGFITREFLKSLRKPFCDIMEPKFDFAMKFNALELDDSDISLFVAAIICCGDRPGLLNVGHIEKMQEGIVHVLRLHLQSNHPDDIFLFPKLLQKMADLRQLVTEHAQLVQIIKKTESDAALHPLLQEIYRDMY", "assay": "Human PPAR activation, transient transfection in CV-1 cells (alpha subtype)", "assay_type": "cell-based", "excerpt": "PPAR receptor agonist activity may be determined by conventional screening methods known to the skilled in the art. For example, methods described in U.S. Patent Application Publication No. 2007/0054907, 2008/0262047 and U.S. Pat. No. 7,314,879, which are incorporated by reference in their entireties.\nThe table summarize the results of studies performed in transfected CV-1 cells with three different lots of Compound of Example 11. […]."}, "[1]": {"system": "glucose metabolism in the brain"}, "Caco-2": {"system": "Caco-2", "assay": "Caco-2 permeability with and without P-gp inhibitor verapamil", "settings": "absence of a P-gp inhibitor"}, "[2]": {"settings": "time point 1.0, individual rats"}, "[3]": {"settings": "time point 3.0, individual rats"}, "[4]": {"settings": "time point 5.0, individual rats"}, "[5]": {"settings": "time point 7.0, individual rats"}, "[6]": {"settings": "time point 12.0, individual rats"}, "[7]": {"settings": "3 mg, White Matter as Reference Region"}, "[8]": {"settings": "3 mg, Whole Brain as Reference Region"}, "[9]": {"settings": "10 mg, White Matter as Reference Region"}, "[10]": {"settings": "10 mg, Whole Brain as Reference Region"}, "[11]": {"settings": "30 mg, White Matter as Reference Region"}, "[12]": {"settings": "30 mg, Whole Brain as Reference Region"}, "[13]": {"settings": "90 mg, White Matter as Reference Region"}, "[14]": {"settings": "90 mg, Whole Brain as Reference Region"}}, "note": "Several values for one entry are separate records, joined by “and”; a condition that tells them apart may be missing. Equal values may be shown once. Read-outs that look alike come from different tables or passages of the source."}
{"smiles": "CCc1oc(-c2ccc(OC)cc2)nc1CCOc1ccc2c(c1)CC[C@H]2CC(=O)[O-].[Na+]", "note": "[Example 11, Sodium (S)-2-(5-(2-(5-ethyl-2-(4-methoxyphenyl)oxazol-4-yl)ethoxy)-2,3-dihydro-1H-inden-1-yl)acetate]", "values": [{"measurement": "Peak effect PPARδ", "setting": "human PPARδ", "value": 17.68}, {"measurement": "greater potency in activating human PPARδ subtype over human PPARγ subtype", "setting": "human PPARδ", "value": 15, "unit": "fold"}, {"measurement": "Peak effect PPARα", "setting": "human PPARα", "value": 1.87}, {"measurement": "maximal response, human alpha subtype", "setting": "human PPARα", "value": "significantly reduced maximal response"}, {"measurement": "B/P Ratio", "setting": "[2]", "value": "0.22 and 0.36 and 0.51"}, {"measurement": "Brain Tissue Cone.", "setting": "[2]", "value": "226 ng/g and 161 ng/g and 101 ng/g"}, {"measurement": "Average (B/P Ratio)", "setting": "time point 1.0, three rats", "value": 0.361}, {"measurement": "B/P Ratio", "setting": "[3]", "value": "0.26 and 0.21 and 0.19"}, {"measurement": "Brain Tissue Cone.", "setting": "[3]", "value": "234 ng/g and 269 ng/g and 274 ng/g"}, {"measurement": "Plasma Conc.", "setting": "[3]", "value": "1270 ng/mL and 1430 ng/mL"}, {"measurement": "Average (B/P Ratio)", "setting": "time point 3.0, three rats", "value": 0.220}, {"measurement": "B/P Ratio", "setting": "[4]", "value": "0.17 and 0.18 and 0.16"}, {"measurement": "Brain Tissue Cone.", "setting": "[4]", "value": "208 ng/g and 247 ng/g and 333 ng/g"}, {"measurement": "Plasma Conc.", "setting": "[4]", "value": "1260 ng/mL and 1340 ng/mL and 2040 ng/mL"}, {"measurement": "Average (B/P Ratio)", "setting": "time point 5.0, three rats", "value": 0.171}, {"measurement": "B/P Ratio", "setting": "[5]", "value": "0.16 and 0.35 and 0.47"}, {"measurement": "Brain Tissue Cone.", "setting": "[5]", "value": "203 ng/g and 216 ng/g"}, {"measurement": "Average (B/P Ratio)", "setting": "time point 7.0, three rats", "value": 0.328}, {"measurement": "B/P Ratio", "setting": "[6]", "value": "0.30 and 0.44 and 0.31"}, {"measurement": "Brain Tissue Cone.", "setting": "[6]", "value": "104 ng/g and 114 ng/g and 117 ng/g"}, {"measurement": "Plasma Conc.", "setting": "[6]", "value": "345 ng/mL and 259 ng/mL and 377 ng/mL"}, {"measurement": "Average (B/P Ratio)", "setting": "time point 12.0, three rats", "value": 0.350}, {"measurement": "Δ R CMRgI (EOT-BL) Sensory Motor Cortex Left, Ave", "setting": "[1]; [7]", "value": "−0.0005"}, {"measurement": "Δ R CMRgI (EOT-BL) Sensory Motor Cortex Right, Ave", "setting": "[1]; [7]", "value": "−0.0151"}, {"measurement": "Δ R CMRgI (EOT-BL) Visual Cortex Left, Ave", "setting": "[1]; [7]", "value": "−0.0219"}, {"measurement": "Δ R CMRgI (EOT-BL) Visual Cortex Right, Ave", "setting": "[1]; [7]", "value": "−0.0272"}, {"measurement": "Δ R CMRgI (EOT-BL) Sensory Motor Cortex Left, Ave", "setting": "[1]; [8]", "value": 0.0152}, {"measurement": "Δ R CMRgI (EOT-BL) Sensory Motor Cortex Right, Ave", "setting": "[1]; [8]", "value": "−0.0037"}, {"measurement": "Δ R CMRgI (EOT-BL) Visual Cortex Left, Ave", "setting": "[1]; [8]", "value": "−0.0196"}, {"measurement": "Δ R CMRgI (EOT-BL) Visual Cortex Right, Ave", "setting": "[1]; [8]", "value": "−0.0269"}, {"measurement": "spatial extent of ROSDs with positive ΔR CMRgl (EOT-BL) relative to Whole Brain", "setting": "[1]; 10 mg", "value": 70, "unit": "voxels"}, {"measurement": "Δ R CMRgI (EOT-BL) Sensory Motor Cortex Left, Ave", "setting": "[1]; [9]", "value": 0.0005}, {"measurement": "Δ R CMRgI (EOT-BL) Sensory Motor Cortex Right, Ave", "setting": "[1]; [9]", "value": "−0.0005"}, {"measurement": "Δ R CMRgI (EOT-BL) Visual Cortex Left, Ave", "setting": "[1]; [9]", "value": "−0.0014"}, {"measurement": "Δ R CMRgI (EOT-BL) Visual Cortex Right, Ave", "setting": "[1]; [9]", "value": "−0.0033"}, {"measurement": "Δ R CMRgI (EOT-BL) Sensory Motor Cortex Left, Ave", "setting": "[1]; [10]", "value": 0.0008}, {"measurement": "Δ R CMRgI (EOT-BL) Sensory Motor Cortex Right, Ave", "setting": "[1]; [10]", "value": 0.0003}, {"measurement": "Δ R CMRgI (EOT-BL) Visual Cortex Left, Ave", "setting": "[1]; [10]", "value": "−0.0032"}, {"measurement": "Δ R CMRgI (EOT-BL) Visual Cortex Right, Ave", "setting": "[1]; [10]", "value": "−0.0053"}, {"measurement": "Δ R CMRgI (EOT-BL) Sensory Motor Cortex Left, Ave", "setting": "[1]; [11]", "value": "−0.0040"}, {"measurement": "Δ R CMRgI (EOT-BL) Sensory Motor Cortex Right, Ave", "setting": "[1]; [11]", "value": "−0.0229"}, {"measurement": "Δ R CMRgI (EOT-BL) Visual Cortex Left, Ave", "setting": "[1]; [11]", "value": "−0.0314"}, {"measurement": "Δ R CMRgI (EOT-BL) Visual Cortex Right, Ave", "setting": "[1]; [11]", "value": "−0.0408"}, {"measurement": "Δ R CMRgI (EOT-BL) Sensory Motor Cortex Left, Ave", "setting": "[1]; [12]", "value": 0.0213}, {"measurement": "Δ R CMRgI (EOT-BL) Sensory Motor Cortex Right, Ave", "setting": "[1]; [12]", "value": "−0.0040"}, {"measurement": "Δ R CMRgI (EOT-BL) Visual Cortex Left, Ave", "setting": "[1]; [12]", "value": "−0.0158"}, {"measurement": "Δ R CMRgI (EOT-BL) Visual Cortex Right, Ave", "setting": "[1]; [12]", "value": "−0.0271"}, {"measurement": "Δ R CMRgI (EOT-BL) Sensory Motor Cortex Left, Ave", "setting": "[1]; [13]", "value": "−0.0076"}, {"measurement": "Δ R CMRgI (EOT-BL) Sensory Motor Cortex Right, Ave", "setting": "[1]; [13]", "value": "−0.0078"}, {"measurement": "Δ R CMRgI (EOT-BL) Visual Cortex Left, Ave", "setting": "[1]; [13]", "value": "−0.0775"}, {"measurement": "Δ R CMRgI (EOT-BL) Visual Cortex Right, Ave", "setting": "[1]; [13]", "value": "−0.0730"}, {"measurement": "Δ R CMRgI (EOT-BL) Sensory Motor Cortex Left, Ave", "setting": "[1]; [14]", "value": 0.0244}, {"measurement": "Δ R CMRgI (EOT-BL) Sensory Motor Cortex Right, Ave", "setting": "[1]; [14]", "value": 0.0251}, {"measurement": "Δ R CMRgI (EOT-BL) Visual Cortex Left, Ave", "setting": "[1]; [14]", "value": "−0.0685"}, {"measurement": "Δ R CMRgI (EOT-BL) Visual Cortex Right, Ave", "setting": "[1]; [14]", "value": "−0.0604"}, {"measurement": "dose dependence of effect on FDG-PET outcomes", "setting": "[1]; 3 to 90 mg", "value": "dose-dependent"}, {"measurement": "effect on glucose metabolism in the brain", "setting": "[1]; two week treatment", "value": "altered the glucose metabolism in the brain"}, {"measurement": "Blood Brain Barrier penetration inferred from FDG-PET", "setting": "[1]; voxel-wise (SPM) analysis, even at the lowest 3 mg", "value": "penetrates the Blood Brain Barrier (BBB)"}, {"measurement": "Papparent", "setting": "Caco-2", "value": 114.4, "unit": "×10⁻⁶ cm/s"}]}
